What all share (format): biochemical
One assay has as its target CDK4-CYCLIND1 (Homo sapiens, UniProt P11802). The assay can be described thus: Microfluidic LabChip inhibition assay, CDK4-CYCLIND1. To be noted: ATP 200 μM. As for the experimental part:
(§1) The reaction was terminated by the addition of EDTA. The plates were analyzed using a Caliper LabChip 3000.
(§2) Additional inhibition assays were performed as described above.

In another assay the target is CDK1/B (Homo sapiens, UniProt P06493). In words: Inhibition assay, CDK1/B. As for the experimental part:
as §1, §2

A further assay has as its target CDK2-CYCLINA (Homo sapiens, UniProt P24941). The assay can be described thus: Microfluidic LabChip inhibition assay, CDK2-CYCLINA. The settings on record: ATP 50 μM. As for the experimental part: as §1, §2
For the next assay, the target named is CDK7 CyclinH (Homo sapiens, UniProt P50613). In words: Inhibition assay, CDK7 CyclinH. As for the experimental part: as §1, §2
CDK7 CyclinH, sequence (P50613 whole entry): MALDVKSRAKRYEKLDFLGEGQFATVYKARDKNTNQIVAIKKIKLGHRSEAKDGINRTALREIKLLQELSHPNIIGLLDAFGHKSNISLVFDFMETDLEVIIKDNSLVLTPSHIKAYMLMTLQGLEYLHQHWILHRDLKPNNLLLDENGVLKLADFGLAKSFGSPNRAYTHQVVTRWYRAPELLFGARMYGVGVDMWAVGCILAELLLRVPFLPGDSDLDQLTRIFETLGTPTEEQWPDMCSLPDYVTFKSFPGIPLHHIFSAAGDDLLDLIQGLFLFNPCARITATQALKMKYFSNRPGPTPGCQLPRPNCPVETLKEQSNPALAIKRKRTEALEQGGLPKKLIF
CDK7 CyclinH, sequence (P51946 whole entry partner): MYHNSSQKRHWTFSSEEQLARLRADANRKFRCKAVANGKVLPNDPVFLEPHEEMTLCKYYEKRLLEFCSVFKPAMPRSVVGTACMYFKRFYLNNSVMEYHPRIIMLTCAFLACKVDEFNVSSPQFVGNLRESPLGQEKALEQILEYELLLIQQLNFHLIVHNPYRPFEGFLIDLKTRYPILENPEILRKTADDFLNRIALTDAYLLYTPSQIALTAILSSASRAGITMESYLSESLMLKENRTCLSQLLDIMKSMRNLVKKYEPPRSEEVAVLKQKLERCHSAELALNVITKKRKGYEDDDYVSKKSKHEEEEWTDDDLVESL
CDK7 CyclinH, sequence (P51948 whole entry partner): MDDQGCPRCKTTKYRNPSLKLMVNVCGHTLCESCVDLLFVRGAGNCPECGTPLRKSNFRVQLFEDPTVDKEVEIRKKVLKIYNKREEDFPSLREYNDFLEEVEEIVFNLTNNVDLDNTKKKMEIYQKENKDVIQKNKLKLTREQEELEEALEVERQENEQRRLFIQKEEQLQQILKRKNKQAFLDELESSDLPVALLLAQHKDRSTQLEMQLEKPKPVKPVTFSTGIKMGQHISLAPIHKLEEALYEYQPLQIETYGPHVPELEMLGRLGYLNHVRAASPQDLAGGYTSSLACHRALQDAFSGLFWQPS
For a further assay, the target named is CDK9-CYCLINT1 (Homo sapiens, UniProt P50750). In words: Microfluidic LabChip inhibition assay, CDK9-CYCLINT1. The settings on record: ATP 10 μM. As for the experimental part: as §1, §2
CDK9-CYCLINT1, sequence (P50750 whole entry): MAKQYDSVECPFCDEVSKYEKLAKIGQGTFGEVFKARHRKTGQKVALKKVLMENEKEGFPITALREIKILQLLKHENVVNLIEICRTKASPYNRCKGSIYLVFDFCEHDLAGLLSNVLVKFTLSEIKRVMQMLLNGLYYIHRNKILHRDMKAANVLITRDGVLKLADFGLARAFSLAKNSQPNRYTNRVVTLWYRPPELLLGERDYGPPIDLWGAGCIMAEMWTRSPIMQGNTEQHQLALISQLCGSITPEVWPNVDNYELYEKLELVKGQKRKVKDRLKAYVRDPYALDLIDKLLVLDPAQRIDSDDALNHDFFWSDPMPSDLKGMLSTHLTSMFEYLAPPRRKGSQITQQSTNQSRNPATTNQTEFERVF
CDK9-CYCLINT1, sequence (O60563 whole entry partner): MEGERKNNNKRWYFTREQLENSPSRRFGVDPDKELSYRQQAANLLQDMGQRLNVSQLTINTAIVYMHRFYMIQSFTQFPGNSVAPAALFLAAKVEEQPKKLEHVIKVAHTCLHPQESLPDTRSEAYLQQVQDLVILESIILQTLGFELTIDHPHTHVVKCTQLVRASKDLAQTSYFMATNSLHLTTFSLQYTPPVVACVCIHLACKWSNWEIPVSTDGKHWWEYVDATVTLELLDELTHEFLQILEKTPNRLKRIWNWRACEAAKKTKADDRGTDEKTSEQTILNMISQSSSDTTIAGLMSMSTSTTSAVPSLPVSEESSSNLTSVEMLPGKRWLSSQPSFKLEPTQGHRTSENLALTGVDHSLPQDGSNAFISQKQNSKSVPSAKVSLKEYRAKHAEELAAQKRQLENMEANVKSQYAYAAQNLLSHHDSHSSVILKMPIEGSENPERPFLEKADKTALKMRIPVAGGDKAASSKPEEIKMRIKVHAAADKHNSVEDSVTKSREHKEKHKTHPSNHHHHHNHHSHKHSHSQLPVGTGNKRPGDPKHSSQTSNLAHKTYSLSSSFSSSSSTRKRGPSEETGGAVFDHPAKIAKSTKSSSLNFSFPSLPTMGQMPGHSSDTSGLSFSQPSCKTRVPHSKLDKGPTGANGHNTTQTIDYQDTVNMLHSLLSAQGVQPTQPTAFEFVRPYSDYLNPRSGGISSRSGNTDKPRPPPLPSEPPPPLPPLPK
For the next assay, the target named is CDK6-CYCLIND3 (Homo sapiens, UniProt Q00534). In words: Microfluidic LabChip inhibition assay, CDK6-CYCLIND3. The settings on record: ATP 300 μM. As for the experimental part: as §1, §2
CDK6-CYCLIND3, sequence (Q00534 whole entry): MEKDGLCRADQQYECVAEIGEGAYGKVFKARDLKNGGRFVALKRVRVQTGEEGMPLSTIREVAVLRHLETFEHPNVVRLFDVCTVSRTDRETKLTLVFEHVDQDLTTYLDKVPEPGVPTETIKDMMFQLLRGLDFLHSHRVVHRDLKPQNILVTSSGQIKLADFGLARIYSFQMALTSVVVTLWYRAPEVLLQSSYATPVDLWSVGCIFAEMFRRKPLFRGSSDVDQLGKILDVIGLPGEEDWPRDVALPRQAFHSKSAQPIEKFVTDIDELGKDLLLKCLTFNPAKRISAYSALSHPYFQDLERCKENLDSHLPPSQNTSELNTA
CDK6-CYCLIND3, sequence (P30281 whole entry partner): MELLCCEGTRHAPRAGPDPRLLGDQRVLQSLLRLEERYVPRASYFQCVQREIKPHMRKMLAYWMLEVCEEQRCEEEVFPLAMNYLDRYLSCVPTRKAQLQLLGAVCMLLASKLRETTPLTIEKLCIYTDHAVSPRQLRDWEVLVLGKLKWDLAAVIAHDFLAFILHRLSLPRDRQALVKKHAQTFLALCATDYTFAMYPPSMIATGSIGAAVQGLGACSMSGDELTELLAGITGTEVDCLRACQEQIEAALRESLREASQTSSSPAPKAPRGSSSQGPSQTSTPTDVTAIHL
The mark [1] stands for this setting: Table 3a, second values in parentheses on the line below, not explained, read-out: CDK4 CyclinD1 IC50.
Where [2] appears, read: Table 3b, second values in parentheses on the line below, not explained, read-out: CDK4 CyclinD1 IC50.
The mark [3] stands for this setting: Table 3a, read-out: CDK1/B IC50.
Where [4] appears, read: Table 3a, read-out: CDK6 CyclinD3 IC50.
Setting [5] is: Table 2, 25° C., read-out: CDK4 IC50.
[6] abbreviates: Table 2, 25° C., read-out: CDK6 IC50.

“And” between values parts separate entries of the source, which are not always exact repeats. Identical values can stand only once. Like-named read-outs stand apart in the source and are kept apart here.

CDK1/B, sequence (P06493 whole entry): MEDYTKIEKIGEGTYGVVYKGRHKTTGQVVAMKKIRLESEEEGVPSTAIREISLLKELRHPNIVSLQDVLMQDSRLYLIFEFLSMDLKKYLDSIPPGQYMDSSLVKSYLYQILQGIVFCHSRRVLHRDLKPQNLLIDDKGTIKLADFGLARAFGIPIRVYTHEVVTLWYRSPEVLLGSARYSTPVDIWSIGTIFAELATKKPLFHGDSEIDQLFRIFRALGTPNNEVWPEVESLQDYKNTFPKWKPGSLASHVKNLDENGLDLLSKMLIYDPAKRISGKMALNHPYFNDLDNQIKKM
CDK1/B, sequence (P14635 whole entry partner): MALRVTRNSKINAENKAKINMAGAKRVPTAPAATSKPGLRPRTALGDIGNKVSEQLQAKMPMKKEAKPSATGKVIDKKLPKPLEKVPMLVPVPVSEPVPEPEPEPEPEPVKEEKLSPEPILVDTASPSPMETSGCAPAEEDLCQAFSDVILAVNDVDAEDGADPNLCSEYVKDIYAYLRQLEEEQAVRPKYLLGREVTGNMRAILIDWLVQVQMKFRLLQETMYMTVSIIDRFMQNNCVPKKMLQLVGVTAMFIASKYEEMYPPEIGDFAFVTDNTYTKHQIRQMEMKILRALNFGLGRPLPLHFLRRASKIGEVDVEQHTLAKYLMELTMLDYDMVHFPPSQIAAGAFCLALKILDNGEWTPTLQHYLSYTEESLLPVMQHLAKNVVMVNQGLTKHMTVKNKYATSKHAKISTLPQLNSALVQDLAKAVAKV
CDK4-CYCLIND1, sequence (P11802 whole entry): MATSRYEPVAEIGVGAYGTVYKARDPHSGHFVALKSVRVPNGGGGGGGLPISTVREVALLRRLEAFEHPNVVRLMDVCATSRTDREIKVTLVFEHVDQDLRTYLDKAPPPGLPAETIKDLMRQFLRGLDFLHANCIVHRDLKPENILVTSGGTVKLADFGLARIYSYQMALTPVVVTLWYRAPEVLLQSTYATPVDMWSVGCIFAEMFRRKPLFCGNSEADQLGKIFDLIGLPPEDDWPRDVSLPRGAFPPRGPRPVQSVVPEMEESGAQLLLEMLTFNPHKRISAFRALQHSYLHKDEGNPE
CDK4-CYCLIND1, sequence (P24385 whole entry partner): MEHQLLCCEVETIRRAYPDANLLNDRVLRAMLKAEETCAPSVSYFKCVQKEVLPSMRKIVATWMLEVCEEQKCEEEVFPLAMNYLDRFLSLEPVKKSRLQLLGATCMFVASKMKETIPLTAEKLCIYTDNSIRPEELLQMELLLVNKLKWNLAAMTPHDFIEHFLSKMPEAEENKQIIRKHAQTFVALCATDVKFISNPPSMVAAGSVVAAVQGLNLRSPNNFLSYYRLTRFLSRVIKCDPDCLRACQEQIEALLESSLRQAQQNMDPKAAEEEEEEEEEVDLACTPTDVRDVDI

`CS(=O)(=O)N1CCC(Nc2ncc3cc(C#N)c(=O)n(C4CCCC4)c3n2)CC1` [Compound B152, 8-cyclopentyl-2-((1-(methylsulfonyl)piperidin-4-yl)amino)-7-oxo-7,8-dihydropyrido[2,3-d]pyrimidine-6-carbonitrile]: the IC50 at CDK4-CYCLIND1 (setting [1]) stood at 3.29 nM; on CDK4-CYCLIND1 (setting [2]) it was 3.29 nM; against CDK1/B it was 47.9 nM; against CDK2-CYCLINA (Table 3a), 15.3 nM; against CDK2-CYCLINA (Table 3b) it was 15.3 nM; on CDK7 CyclinH (Table 3a) it was 745 nM. The figures for the IC50 against CDK7 CyclinH (Table 3b), on CDK9-CYCLINT1 (Table 3a) and at CDK9-CYCLINT1 (Table 3b) were 745 nM, 105 nM and 105 nM, respectively.
Regarding `CC(=O)c1c(C)c2cnc(Nc3ccc(N(C)CCN(C)C)cc3)nc2n(C2CCCC2)c1=O` [Compound B155, 6-acetyl-8-cyclopentyl-2-((4-((2-(dimethylamino)ethyl)(methyl)amino)phenyl)amino)-5-methylpyrido[2,3-d]pyrimidin-7(8H)-one], the IC50 is under 3.2 nM at CDK4-CYCLIND1 (setting [1]); under 3.2 nM on CDK4-CYCLIND1 (setting [2]); 172 nM on CDK1/B (setting [3]); 81.6 nM against CDK2-CYCLINA (Table 3a); 81.6 nM on CDK2-CYCLINA (Table 3b); 468 nM on CDK7 CyclinH (Table 3a). At CDK7 CyclinH (Table 3b), this molecule had an IC50 of 468 nM.
Regarding `CC(=O)c1c(C)c2cnc(Nc3ccc(N(C)CCN(C)C)cc3)nc2n(C23CC(C2)C3)c1=O` [Compound B154, 6-acetyl-8-(bicyclo[1.1.1]pentan-1-yl)-2-((4-((2-(dimethylamino)ethyl)(methyl)amino)phenyl)amino)-5-methylpyrido[2,3-d]pyrimidin-7(8H)-one], the IC50 at CDK1/B (setting [3]) was found to be 1720 nM; against CDK2-CYCLINA (Table 3a) it was 1520 nM; at CDK2-CYCLINA (Table 3b) it was 1520 nM; against CDK7 CyclinH (Table 3a) it was 785 nM; at CDK7 CyclinH (Table 3b), 785 nM.
Regarding `CC(=O)c1c(C)c2cnc(Nc3ccc(OCCN(C)C)c(C)c3)nc2n(C2CCCC2)c1=O` [Compound B61, 6-acetyl-8-cyclopentyl-2-((4-(2-(dimethylamino)ethoxy)-3-methylphenyl)amino)-5-methylpyrido[2,3-d]pyrimidin-7(8H)-one], the IC50 at CDK4-CYCLIND1 (setting [1]) was 1600 nM; on CDK4-CYCLIND1 (setting [2]), 1600 nM; on CDK6-CYCLIND3 (setting [4]), 3950 nM; against CDK2-CYCLINA (Table 3a), 7730 nM; at CDK2-CYCLINA (Table 3b), 7730 nM; against CDK7 CyclinH (Table 3a) it was over 100000 nM. The IC50 against CDK7 CyclinH (Table 3b) is over 100000 nM; on CDK9-CYCLINT1 (Table 3a), 790 nM; on CDK9-CYCLINT1 (Table 3b) it was 790 nM.
Take `CC(=O)c1c(C)c2cnc(Nc3ccc(OCCN(C)C)cc3)nc2n(C2CCCC2)c1=O` [Compound B60, 6-acetyl-8-cyclopentyl-2-((4-(2-(dimethylamino)ethoxy)phenyl)amino)-5-methylpyrido[2,3-d]pyrimidin-7(8H)-one]: the IC50 at CDK4-CYCLIND1 (setting [1]) is 3 nM and 1.6 nM; at CDK4-CYCLIND1 (setting [2]), 3 nM and 1.6 nM; at CDK6-CYCLIND3 (setting [4]) it was 10.1 nM; against CDK2-CYCLINA (Table 3a), 77.5 nM; on CDK2-CYCLINA (Table 3b), 77.5 nM; on CDK7 CyclinH (Table 3a), 1100 nM. Further, the IC50 stood at 1100 nM against CDK7 CyclinH (Table 3b), 31.8 nM against CDK9-CYCLINT1 (Table 3a) and 31.8 nM at CDK9-CYCLINT1 (Table 3b).
As to `CN(C)[C@H]1CCN(c2ccc(Nc3ncc4cc(C#N)c(=O)n(C5CCCC5)c4n3)cc2)C1` [Compound B42, (S)-8-cyclopentyl-2-((4-(3-(dimethylamino)pyrrolidin-1-yl)phenyl)amino)-7-oxo-7,8-dihydropyrido[2,3-d]pyrimidine-6-carbonitrile], the IC50 at CDK4-CYCLIND1 (setting [5]) worked out at 2.31 nM; at CDK6-CYCLIND3 (setting [6]) it was 6.01 nM.
The like results for `N#Cc1cc2cnc(Nc3ccc(N4CC5(CNC5)C4)cn3)nc2n(C2CCCC2)c1=O` [Compound B32, 2-((5-(2,6-diazaspiro[3.3]heptan-2-yl)pyridin-2-yl)amino)-8-cyclopentyl-7-oxo-7,8-dihydropyrido[2,3-d]pyrimidine-6-carbonitrile] were, in that order, 21.1 nM and 33.4 nM.
On the same counts, the results for `CC(C)N1CCN(c2ccc(Nc3ncc4cc(C#N)c(=O)n(C5CCCC5)c4n3)nc2)CC1` [Compound B25, 8-cyclopentyl-2-((5-(4-isopropylpiperazin-1-yl)pyridin-2-yl)amino)-7-oxo-7,8-dihydropyrido[2,3-d]pyrimidine-6-carbonitrile] are 7.51 nM and 19 nM.
In the case of `CC(=O)c1c(C)c2cnc(Nc3ccc(N4CC(C)NC(C)C4)cc3)nc2n(C2CCCC2)c1=O` (stereo not drawn) [Compound B150, 6-acetyl-8-cyclopentyl-2-((4-(3,5-dimethylpiperazin-1-yl)phenyl)amino)-5-methylpyrido[2,3-d]pyrimidin-7(8H)-one], the IC50 was under 3.2 nM on CDK4-CYCLIND1 (setting [1]); under 3.2 nM on CDK4-CYCLIND1 (setting [2]); 501 nM at CDK1/B (setting [3]); 196 nM on CDK2-CYCLINA (Table 3a); 196 nM on CDK2-CYCLINA (Table 3b); 655 nM at CDK7 CyclinH (Table 3a). This molecule also came in with an IC50 at CDK7 CyclinH (Table 3b) of 655 nM.
For the molecule `N#Cc1cc2cnc(Nc3ccc(N4CCN5CCC4CC5)cn3)nc2n(C2CCCC2)c1=O` [Compound B13, 2-((5-(1,4-diazabicyclo[3.2.2]nonan-4-yl)pyridin-2-yl)amino)-8-cyclopentyl-7-oxo-7,8-dihydropyrido[2,3-d]pyrimidine-6-carbonitrile], the results for the IC50 at CDK4-CYCLIND1 (setting [5]) and at CDK6-CYCLIND3 (setting [6]) were 571 nM and 798 nM, respectively.
Take `CNC(=O)c1cc2cnc(Nc3ccc(N4CCN(C)CC4)nc3)nc2n(C2CCCC2)c1=O` [Compound B145, 8-cyclopentyl-N-methyl-2-((6-(4-methylpiperazin-1-yl)pyridin-3-yl)amino)-7-oxo-7,8-dihydropyrido[2,3-d]pyrimidine-6-carboxamide]: the figures for the IC50 at CDK4-CYCLIND1 (setting [1]), on CDK4-CYCLIND1 (setting [2]) and at CDK6-CYCLIND3 (setting [4]) were 370 nM, 370 nM and 2240 nM, respectively.
Turning to `N#Cc1cc2cnc(Nc3ccc(N4CC5(CNC5)C4)cc3)nc2n(C2CCCC2)c1=O` [Compound B31, 2-((4-(2,6-diazaspiro[3.3]heptan-2-yl)phenyl)amino)-8-cyclopentyl-7-oxo-7,8-dihydropyrido[2,3-d]pyrimidine-6-carbonitrile], the figures for the IC50 on CDK4-CYCLIND1 (setting [5]) and on CDK6-CYCLIND3 (setting [6]) were 2.41 nM and 8.29 nM, respectively.
In the case of `CN1CCN(c2ccc(Nc3ncc4cc(C(=O)N(C)C)c(=O)n(C5CCCC5)c4n3)cc2F)CC1` [Compound B139, 8-cyclopentyl-2-((3-fluoro-4-(4-methylpiperazin-1-yl)phenyl)amino)-N,N-dimethyl-7-oxo-7,8-dihydropyrido[2,3-d]pyrimidine-6-carboxamide], the IC50 on CDK4-CYCLIND1 (setting [1]) was determined as 7.4 nM; on CDK4-CYCLIND1 (setting [2]), 7.4 nM; at CDK6-CYCLIND3 (setting [4]), 76.2 nM.
For `N#Cc1cc2cnc(Nc3ccc(N4CCOCC4)c(F)c3)nc2n(C2CCCC2)c1=O` [Compound B24, 8-cyclopentyl-2-((3-fluoro-4-morpholinophenyl)amino)-7-oxo-7,8-dihydropyrido[2,3-d]pyrimidine-6-carbonitrile], the IC50 was determined as 11.1 nM on CDK4-CYCLIND1 (setting [5]) and 35.8 nM on CDK6-CYCLIND3 (setting [6]).
For the molecule `N#Cc1cc2cnc(Nc3ccc(N4CC5(CNC5)C4)nc3)nc2n(C2CCCC2)c1=O` [Compound B33, 2-((6-(2,6-diazaspiro[3.3]heptan-2-yl)pyridin-3-yl)amino)-8-cyclopentyl-7-oxo-7,8-dihydropyrido[2,3-d]pyrimidine-6-carbonitrile], the IC50 at CDK4-CYCLIND1 (setting [5]) was determined as 5.97 nM; at CDK6-CYCLIND3 (setting [6]) it was 14.4 nM.
For `COc1cc(Nc2ncc3c(C)c(C(C)=O)c(=O)n(C4CCCC4)c3n2)ccc1OCCN(C)C` [Compound B62, 6-acetyl-8-cyclopentyl-2-((4-(2-(dimethylamino)ethoxy)-3-methoxyphenyl)amino)-5-methylpyrido[2,3-d]pyrimidin-7(8H)-one], the IC50 on CDK4-CYCLIND1 (setting [1]) is 26.3 nM and 14 nM; on CDK4-CYCLIND1 (setting [2]), 26.3 nM and 14 nM; at CDK6-CYCLIND3 (setting [4]) it was 37.5 nM; on CDK2-CYCLINA (Table 3a), 280 nM; against CDK2-CYCLINA (Table 3b) it was 280 nM; on CDK7 CyclinH (Table 3a), 1300 nM. Also, the IC50 stood at 1300 nM against CDK7 CyclinH (Table 3b), 336 nM at CDK9-CYCLINT1 (Table 3a) and 336 nM on CDK9-CYCLINT1 (Table 3b).
For `CN1CCN(c2ccc(Nc3ncc4cc(C#N)c(=O)n(C5CCCC5)c4n3)cn2)CC1` [Compound B23, 8-cyclopentyl-2-((6-(4-methylpiperazin-1-yl)pyridin-3-yl)amino)-7-oxo-7,8-dihydropyrido[2,3-d]pyrimidine-6-carbonitrile], the IC50 at CDK4-CYCLIND1 (setting [5]) came out at 11.5 nM; at CDK6-CYCLIND3 (setting [6]), 33.2 nM.
For the molecule `CN(C)CCOc1ccc(Nc2ncc3cc(C#N)c(=O)n(C4CCCC4)c3n2)cn1` [Compound B11, 8-cyclopentyl-2-((6-(2-(dimethylamino)ethoxy)pyridin-3-yl)amino)-7-oxo-7,8-dihydropyrido[2,3-d]pyrimidine-6-carbonitrile], the IC50 on CDK4-CYCLIND1 (setting [5]) was determined as 37.6 nM; on CDK6-CYCLIND3 (setting [6]), 133 nM.
For `CC(=O)c1c(C)c2cnc(Nc3ccc(OCCN4CCCCC4)cn3)nc2n(C2CCCC2)c1=O` [Compound B67, 6-acetyl-8-cyclopentyl-5-methyl-2-((5-(2-(piperidin-1-yl)ethoxy)pyridin-2-yl)amino)pyrido[2,3-d]pyrimidin-7(8H)-one], the IC50 at CDK4-CYCLIND1 (setting [1]) came to 48.8 nM; at CDK4-CYCLIND1 (setting [2]), 48.8 nM; on CDK6-CYCLIND3 (setting [4]), 298 nM.
`N#Cc1cc2cnc(Nc3ccc(OCCN4CCCC4)cn3)nc2n(C2CCCC2)c1=O` [Compound B7, 8-cyclopentyl-7-oxo-2-((5-(2-(pyrrolidin-1-yl)ethoxy)pyridin-2-yl)amino)-7,8-dihydropyrido[2,3-d]pyrimidine-6-carbonitrile]: the IC50 at CDK4-CYCLIND1 (setting [5]) amounted to 101 nM; on CDK6-CYCLIND3 (setting [6]) it was 103 nM.

For the origin of these results see patent US20220220103A1, “CYCLIN-DEPENDENT KINASE INHIBITORS” (SPV THERAPEUTICS INC., priority 2018, published 2022).
